# In PubChem BioAssay (NCI):
#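 Grown in 96-well plates, cells were treated for 48 hours with each compound at five concentrations. Insufficient inhibition: endpoint recorded as highest concentration tested. At the GI50, growth is halved. TGI denotes the concentration required for complete inhibition of growth.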
# Key:
# Experiment in all cases: NCI-60 cell line screen, 48 h
# HCC-2998 colon = tested on: HCC-2998 colon
# LOX IMVI melanoma = tested on: LOX IMVI melanoma
# OVCAR-8 ovarian = tested on: OVCAR-8 ovarian
# UACC-62 melanoma = tested on: UACC-62 melanoma
# SF-539 CNS = tested on: SF-539 CNS
# NCI-H226 lung = tested on: NCI-H226 lung
# SK-MEL-2 melanoma = tested on: SK-MEL-2 melanoma
# BT-549 breast = tested on: BT-549 breast
# SNB-75 CNS = tested on: SNB-75 CNS
# RXF 393 renal = tested on: RXF 393 renal
# A498 renal = tested on: A498 renal
# MCF7 breast = tested on: MCF7 breast
# COLO 205 colon = tested on: COLO 205 colon
# SF-295 CNS = tested on: SF-295 CNS
# ACHN renal = tested on: ACHN renal
# T-47D breast = tested on: T-47D breast
# HS 578T breast = tested on: HS 578T breast
# MALME-3M melanoma = tested on: MALME-3M melanoma
# CAKI-1 renal = tested on: CAKI-1 renal
# NCI-H23 lung = tested on: NCI-H23 lung
# IGROV1 ovarian = tested on: IGROV1 ovarian
# UO-31 renal = tested on: UO-31 renal
# HOP-62 NSCLC = tested on: HOP-62 NSCLC
# EKVX NSCLC = tested on: EKVX NSCLC
# SK-MEL-5 melanoma = tested on: SK-MEL-5 melanoma
# HT29 colon = tested on: HT29 colon
# KM12 colon = tested on: KM12 colon
# PC-3 prostate = tested on: PC-3 prostate
# SN12C renal = tested on: SN12C renal
# MOLT-4 leukemia = tested on: MOLT-4 leukemia
# SK-OV-3 ovarian = tested on: SK-OV-3 ovarian
# K-562 leukemia = tested on: K-562 leukemia
# MDA-MB-231 breast = tested on: MDA-MB-231 breast
# SNB-19 CNS = tested on: SNB-19 CNS
# A549 NSCLC = tested on: A549 NSCLC
# M14 melanoma = tested on: M14 melanoma
# HCT-116 colon = tested on: HCT-116 colon
# SK-MEL-28 melanoma = tested on: SK-MEL-28 melanoma
# SR leukemia = tested on: SR leukemia
# 786-0 renal = tested on: 786-0 renal
# NCI-H460 lung = tested on: NCI-H460 lung
# RPMI-8226 leukemia = tested on: RPMI-8226 leukemia
# NCI/ADR-RES ovarian = tested on: NCI/ADR-RES ovarian
# U251 CNS = tested on: U251 CNS
# SF-268 CNS = tested on: SF-268 CNS
# TK-10 renal = tested on: TK-10 renal
# HL-60(TB) leukemia = tested on: HL-60(TB) leukemia
# OVCAR-5 ovarian = tested on: OVCAR-5 ovarian
# OVCAR-3 ovarian = tested on: OVCAR-3 ovarian
# OVCAR-4 ovarian = tested on: OVCAR-4 ovarian
# SW-620 colon = tested on: SW-620 colon
# NCI-H522 lung = tested on: NCI-H522 lung
# MDA-MB-435 = tested on: MDA-MB-435
# DU-145 prostate = tested on: DU-145 prostate
# HCT-15 colon = tested on: HCT-15 colon
smiles,measurement,setting,value
CC(C)=CCCC(C)c1ccc(C)c2c1OCN(CC1CCNCC1)C2 (stereo not given),GI50,HCC-2998 colon,3.74 µM
same,TGI,HCC-2998 colon,12.3 µM
same,GI50,LOX IMVI melanoma,5.87 µM
same,TGI,LOX IMVI melanoma,20.2 µM
same,GI50,OVCAR-8 ovarian,18.4 µM
same,TGI,OVCAR-8 ovarian,34.5 µM
same,GI50,UACC-62 melanoma,15.5 µM
same,TGI,UACC-62 melanoma,29.9 µM
same,GI50,SF-539 CNS,13.7 µM
same,TGI,SF-539 CNS,27.5 µM
same,GI50,NCI-H226 lung,17.7 µM
same,TGI,NCI-H226 lung,33.8 µM
same,GI50,SK-MEL-2 melanoma,18.2 µM
same,TGI,SK-MEL-2 melanoma,35.5 µM
same,GI50,BT-549 breast,16.9 µM
same,TGI,BT-549 breast,41.6 µM
same,GI50,SNB-75 CNS,11.9 µM
same,TGI,SNB-75 CNS,24.3 µM
same,GI50,RXF 393 renal,9.2 µM
same,TGI,RXF 393 renal,21.7 µM
same,GI50,A498 renal,12.3 µM
same,TGI,A498 renal,26 µM
same,GI50,MCF7 breast,6.15 µM
same,TGI,MCF7 breast,18.7 µM
same,GI50,COLO 205 colon,1860 nM
same,TGI,COLO 205 colon,3.41 µM
same,GI50,SF-295 CNS,15.9 µM
same,TGI,SF-295 CNS,34.9 µM
same,GI50,ACHN renal,15.3 µM
same,TGI,ACHN renal,30 µM
same,GI50,T-47D breast,15.2 µM
same,TGI,T-47D breast,33.2 µM
same,GI50,HS 578T breast,13.3 µM
same,TGI,HS 578T breast,29.9 µM
same,GI50,MALME-3M melanoma,17.7 µM
same,TGI,MALME-3M melanoma,35.3 µM
same,GI50,CAKI-1 renal,17.7 µM
same,TGI,CAKI-1 renal,36.8 µM
same,GI50,NCI-H23 lung,15.7 µM
same,TGI,NCI-H23 lung,33.6 µM
same,GI50,IGROV1 ovarian,16.6 µM
same,TGI,IGROV1 ovarian,32.2 µM
same,GI50,UO-31 renal,12.8 µM
same,TGI,UO-31 renal,27.3 µM
same,GI50,HOP-62 NSCLC,14.8 µM
same,TGI,HOP-62 NSCLC,28.7 µM
same,GI50,EKVX NSCLC,20.7 µM
same,TGI,EKVX NSCLC,66.9 µM
same,GI50,SK-MEL-5 melanoma,4.97 µM
same,TGI,SK-MEL-5 melanoma,18.3 µM
same,GI50,HT29 colon,3000 nM
same,TGI,HT29 colon,8.38 µM
same,GI50,KM12 colon,12.3 µM
same,TGI,KM12 colon,26 µM
same,GI50,PC-3 prostate,16.5 µM
same,TGI,PC-3 prostate,42.1 µM
same,GI50,SN12C renal,14.2 µM
same,TGI,SN12C renal,28.9 µM
same,GI50,MOLT-4 leukemia,14.6 µM
same,TGI,MOLT-4 leukemia,43.3 µM
same,GI50,SK-OV-3 ovarian,16.7 µM
same,TGI,SK-OV-3 ovarian,31.1 µM
same,GI50,K-562 leukemia,2680 nM
same,TGI,K-562 leukemia,8.44 µM
same,GI50,MDA-MB-231 breast,12.5 µM
same,TGI,MDA-MB-231 breast,28.3 µM
same,GI50,SNB-19 CNS,14 µM
same,TGI,SNB-19 CNS,29.4 µM
same,GI50,A549 NSCLC,13 µM
same,TGI,A549 NSCLC,27.8 µM
same,GI50,M14 melanoma,10.2 µM
same,TGI,M14 melanoma,24.5 µM
same,GI50,HCT-116 colon,7.17 µM
same,TGI,HCT-116 colon,21.7 µM
same,GI50,SK-MEL-28 melanoma,15.7 µM
same,TGI,SK-MEL-28 melanoma,29.3 µM
same,GI50,SR leukemia,2790 nM
same,TGI,SR leukemia,9.83 µM
same,GI50,786-0 renal,12.2 µM
same,TGI,786-0 renal,26.3 µM
same,GI50,NCI-H460 lung,5.36 µM
same,TGI,NCI-H460 lung,16.6 µM
same,GI50,RPMI-8226 leukemia,7.25 µM
same,TGI,RPMI-8226 leukemia,32.6 µM
same,GI50,NCI/ADR-RES ovarian,16.8 µM
same,TGI,NCI/ADR-RES ovarian,34.8 µM
same,GI50,U251 CNS,2750 nM
same,TGI,U251 CNS,7.61 µM
same,GI50,SF-268 CNS,16.6 µM
same,TGI,SF-268 CNS,33.3 µM
same,GI50,TK-10 renal,14.4 µM
same,TGI,TK-10 renal,29.3 µM
same,GI50,HL-60(TB) leukemia,3.9 µM
same,TGI,HL-60(TB) leukemia,18.9 µM
same,GI50,OVCAR-5 ovarian,14.3 µM
same,TGI,OVCAR-5 ovarian,28.8 µM
same,GI50,OVCAR-3 ovarian,15.6 µM
same,TGI,OVCAR-3 ovarian,31.1 µM
same,GI50,OVCAR-4 ovarian,16 µM
same,TGI,OVCAR-4 ovarian,30.7 µM
same,GI50,SW-620 colon,9.87 µM
same,TGI,SW-620 colon,23.1 µM
same,GI50,NCI-H522 lung,13.5 µM
same,TGI,NCI-H522 lung,28.6 µM
same,GI50,MDA-MB-435,6.48 µM
same,TGI,MDA-MB-435,20.9 µM
same,GI50,DU-145 prostate,16.4 µM
same,TGI,DU-145 prostate,32.2 µM
same,GI50,HCT-15 colon,6.51 µM
same,TGI,HCT-15 colon,21.1 µM
